pIC50: −log10 of the molar value.
These compounds were tested against T1, human S1P1 receptors (Homo sapiens, UniProt P21453) (assay: S1P1R antagonist assay (fluorescent membrane potential dye, cAMP readout)). Details: HEK293 cells expressing human S1P1 receptors and CNG channel; 500 nM NECA; S1P1R agonist 10 nM; 90 minutes; read-out: EC50 or IC50 value.
T1 construct: host or cells: HEK293
T1 sequence (P21453 whole entry): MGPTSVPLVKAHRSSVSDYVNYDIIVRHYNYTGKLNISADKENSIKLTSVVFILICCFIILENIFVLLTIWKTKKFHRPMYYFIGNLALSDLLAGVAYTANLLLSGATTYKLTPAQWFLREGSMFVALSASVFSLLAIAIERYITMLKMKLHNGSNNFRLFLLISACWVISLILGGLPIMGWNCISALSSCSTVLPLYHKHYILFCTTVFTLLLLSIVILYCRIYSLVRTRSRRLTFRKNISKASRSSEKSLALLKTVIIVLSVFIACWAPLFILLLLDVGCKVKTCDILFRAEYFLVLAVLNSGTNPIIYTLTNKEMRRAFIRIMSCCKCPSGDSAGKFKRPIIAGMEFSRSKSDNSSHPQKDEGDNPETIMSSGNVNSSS
Type: cell-based
A pIC50 of under 6.00 was found for `O=C(CCc1c[nH]c2ccccc12)NC(COCc1ccccc1)C(=O)Nc1ccc(Oc2ccccc2)cc1` (stereo not drawn) [Compound 383, N-(2-oxo-1-{[(phenylmethyl)oxy]methyl}-2-{[4-(phenyloxy)phenyl]amino}ethyl)-3-(1H-indol-3-yl)propanamide] in this work.
A pIC50 of under 6.00 was found for `O=C(Cc1cccc(Br)c1)NC(COCc1ccccc1)C(=O)Nc1ccc(Oc2ccccc2)cc1` (stereo not drawn) [Compound 384, N-(2-oxo-1-{[(phenylmethyl)oxy]methyl}-2-{[4-(phenyloxy)phenyl]amino}ethyl)-2-(3-bromophenyl)acetamide] in this work.
A pIC50 of under 6.00 was found for `CCC(C)CC(=O)NC(COCc1ccccc1)C(=O)Nc1ccc(Oc2ccccc2)cc1` (stereo not drawn) [Compound 385, 3-methyl-N-(2-oxo-1-{[(phenylmethyl)oxy]methyl}-2-{[4-(phenyloxy)phenyl]amino}ethyl)pentanamide] in this work.
A pIC50 of under 6.00 was found for `O=C(NC(COCc1ccccc1)C(=O)Nc1ccc(Oc2ccccc2)cc1)c1cc2ccccc2[nH]1` (stereo not drawn) [Compound 386, N-(2-oxo-1-{[(phenylmethyl)oxy]methyl}-2-{[4-(phenyloxy)phenyl]amino}ethyl)-1H-indole-2-carboxamide] in this work.
A pIC50 of under 6.00 was found for `O=C(NC(COCc1ccccc1)C(=O)Nc1ccc(Oc2ccccc2)cc1)c1ccc(Cl)cc1F` (stereo not drawn) [Compound 387, 4-chloro-2-fluoro-N-(2-oxo-1-{[(phenylmethyl)oxy]methyl}-2-{[4-(phenyloxy)phenyl]amino}ethyl)benzamide] in this work.
A pIC50 of under 6.00 was found for `CC(=O)OCC(=O)NC(COCc1ccccc1)C(=O)Nc1ccc(Oc2ccccc2)cc1` (stereo not drawn) [Compound 388, 2-oxo-2-[(2-oxo-1-{[(phenylmethyl)oxy]methyl}-2-{[4-(phenyloxy)phenyl]amino}ethyl)amino]ethyl acetate] in this work.
A pIC50 of 6.00 to 6.52 was found for `O=C(NC(COCc1ccccc1)C(=O)Nc1ccc(Oc2ccccc2)cc1)c1ccsc1` (stereo not drawn) [Compound 389, N-(2-oxo-1-{[(phenylmethyl)oxy]methyl}-2-{[4-(phenyloxy)phenyl]amino}ethyl)thiophene-3-carboxamide] in this work.
A pIC50 of under 6.00 was found for `O=C(Cc1ccc(Br)cc1)NC(COCc1ccccc1)C(=O)Nc1ccc(Oc2ccccc2)cc1` (stereo not drawn) [Compound 390, N-(2-oxo-1-{[(phenylmethyl)oxy]methyl}-2-{[4-(phenyloxy)phenyl]amino}ethyl)-2-(4-bromophenyl)acetamide] in this work.
A pIC50 of under 6.00 was found for `O=C(Cc1ccccc1Cl)NC(COCc1ccccc1)C(=O)Nc1ccc(Oc2ccccc2)cc1` (stereo not drawn) [Compound 391, N-(2-oxo-1-{[(phenylmethyl)oxy]methyl}-2-{[4-(phenyloxy)phenyl]amino}ethyl)-2-(2-chlorophenyl)acetamide] in this work.
A pIC50 of 6.00 to 6.52 was found for `COc1cc(CC(=O)NC(COCc2ccccc2)C(=O)Nc2ccc(Oc3ccccc3)cc2)cc(OC)c1OC` (stereo not drawn) [Compound 392, N-(2-oxo-1-{[(phenylmethyl)oxy]methyl}-2-{[4-(phenyloxy)phenyl]amino}ethyl)-2-(3,4,5-trimethoxyphenyl)acetamide] in this work.
A pIC50 of under 6.00 was found for `Cc1ccc(OCC(=O)NC(COCc2ccccc2)C(=O)Nc2ccc(Oc3ccccc3)cc2)cc1` (stereo not drawn) [Compound 393, N-(2-oxo-1-{[(phenylmethyl)oxy]methyl}-2-{[4-(phenyloxy)phenyl]amino}ethyl)-2-(p-tolyloxy)acetamide] in this work.
A pIC50 of under 6.00 was found for `COc1ccccc1CCC(=O)NC(COCc1ccccc1)C(=O)Nc1ccc(Oc2ccccc2)cc1` (stereo not drawn) [Compound 394, N-(2-oxo-1-{[(phenylmethyl)oxy]methyl}-2-{[4-(phenyloxy)phenyl]amino}ethyl)-3-(2-methoxyphenyl)propanamide] in this work.
A pIC50 of under 6.00 was found for `O=C(NC(COCc1ccccc1)C(=O)Nc1ccc(Oc2ccccc2)cc1)c1nc2ccccc2nc1O` (stereo not drawn) [Compound 395, 3-hydroxy-N-(2-oxo-1-{[(phenylmethyl)oxy]methyl}-2-{[4-(phenyloxy)phenyl]amino}ethyl)quinoxaline-2-carboxamide] in this work.
A pIC50 of under 6.00 was found for `CC(=O)c1ccc(C(=O)NC(COCc2ccccc2)C(=O)Nc2ccc(Oc3ccccc3)cc2)cc1` (stereo not drawn) [Compound 396, 4-acetyl-N-(2-oxo-1-{[(phenylmethyl)oxy]methyl}-2-{[4-(phenyloxy)phenyl]amino}ethyl)benzamide] in this work.
A pIC50 of 6.00 to 6.52 was found for `COC(=O)c1ccc(C(=O)NC(COCc2ccccc2)C(=O)Nc2ccc(Oc3ccccc3)cc2)cc1` (stereo not drawn) [Compound 397, methyl 4-{[(2-oxo-1-{[(phenylmethyl)oxy]methyl}-2-{[4-(phenyloxy)phenyl]amino}ethyl)amino]carbonyl}benzoate] in this work.
A pIC50 of under 6.00 was found for `O=C(NC(COCc1ccccc1)C(=O)Nc1ccc(Oc2ccccc2)cc1)c1cc(F)cc(C(F)(F)F)c1` (stereo not drawn) [Compound 398, 3-fluoro-N-(2-oxo-1-{[(phenylmethyl)oxy]methyl}-2-{[4-(phenyloxy)phenyl]amino}ethyl)-5-(trifluoromethyl)benzamide] in this work.
A pIC50 of under 6.00 was found for `O=C(NC(COCc1ccccc1)C(=O)Nc1ccc(Oc2ccccc2)cc1)c1ccc(OC(F)F)cc1` (stereo not drawn) [Compound 399, 4-[(difluoromethyl)oxy]-N-(2-oxo-1-{[(phenylmethyl)oxy]methyl}-2-{[4-(phenyloxy)phenyl]amino}ethyl)benzamide] in this work.
A pIC50 of under 6.00 was found for `Cc1ccc(C(=O)NC(COCc2ccccc2)C(=O)Nc2ccc(Oc3ccccc3)cc2)cc1F` (stereo not drawn) [Compound 400, 3-fluoro-4-methyl-N-(2-oxo-1-{[(phenylmethyl)oxy]methyl}-2-{[4-(phenyloxy)phenyl]amino}ethyl)benzamide] in this work.
A pIC50 of under 6.00 was found for `Cc1ccoc1C(=O)NC(COCc1ccccc1)C(=O)Nc1ccc(Oc2ccccc2)cc1` (stereo not drawn) [Compound 401, 3-methyl-N-(2-oxo-1{[(phenylmethyl)oxy]methyl}-2-{[4-(phenyloxy)phenyl]amino}ethyl)furan-2-carboxamide] in this work.
A pIC50 of under 6.00 was found for `O=C(NC(COCc1ccccc1)C(=O)Nc1ccc(Oc2ccccc2)cc1)C1CCC1` (stereo not drawn) [Compound 402, N-(2-oxo-1-{[(phenylmethyl)oxy]methyl}-2-{[4-(phenyloxy)phenyl]amino}ethyl)cyclobutanecarboxamide] in this work.
A pIC50 of 6.00 to 6.52 was found for `O=C(CCc1cccs1)NC(COCc1ccccc1)C(=O)Nc1ccc(Oc2ccccc2)cc1` (stereo not drawn) [Compound 403, N-(2-oxo-1-{[(phenylmethyl)oxy]methyl}-2-{[4-(phenyloxy)phenyl]amino}ethyl)-3-(thiophen-2-yl)propanamide] in this work.

From patent US8791102B2, “Acetanilide sphingosine-1-phosphate receptor antagonists” (Exelixis, Inc., priority 2008, dated 2014)
